Measurements: publication PMC10470053, “Diverse p120RasGAP interactions with doubly phosphorylated partners EphB4, p190RhoGAP, and Dok1” (The Journal of Biological Chemistry, 2023)
“And” between values parts separate entries of the source, which are not always exact repeats. Identical values can stand only once. Like-named read-outs stand apart in the source and are kept apart here. Square brackets hold non-standard residues; d marks the D form. Peptide text beside a SMILES is read from it. pY = N[C@@H](Cc1ccc(OP(=O)(O)O)cc1)C(=O)O

Columns and labels:
[1] = Reconstitution of lyophilized peptides in water; assay type: physicochemical; settings: lyophilized peptide reconstituted in water; spiked with 20 mM Tris pH 8 or 10 mM NaOH to increase solubility
From the text: Synthetic peptides were purchased from GenScript and contain N-terminal acetylation and C-terminal amidation for stability. The doubly phosphorylated EphB4 peptide (UniProt ID P54760) used in ITC and SAXS experiments contains residues 586 to 602 (GTKV[pTyr]IDPFT[pTyr]EDPNEA). The singly phosphorylated EphB4 peptides pY590 and pY596 used in ITC experiments contain the residues 586 to 595 (GTKV[pTyr]IDPFT) and residues 592 to 602 (DPFT[pTyr]EDPNE), respectively. The p190RhoGAP peptide (UniProt ID Q9NRY4) used in SAXS experiments contains the residues 1083 to 1111 (SD[pTyr]AEPMDAVVKPRNEEENI[pTyr]SVPH). The Dok1 peptide (UniProt ID Q99704) used in ITC and SAXS experiments contains the residues 291 to 322 (SPPAL[pTyr]AEPLDSLRIAPCPSQDSL[pTyr]SDPLDST). Lyophilized peptides were reconstituted in water, and less soluble peptides (pYpYEphB4 and pY590) were spiked with 20 mM Tris pH 8 or 10 mM NaOH to increase solubility. Concentrations of stock peptides are as follows: pYpY190 stock concentration is 10 mM; pYpYEphB4 stock concentration is 2.5 mM; Dok1 stock concentration is 5.5 mM; pY596 stock concentration is 10 mM; and pY590 stock concentration is 8 mM.

[2] = molecular target: T1, RasGAP^232(mut) (R398E/K400E, C-SH2 mutant) (Homo sapiens, UniProt P20936, C236S/C261S/C372S/C402S/K400E/R398E); assay: Isothermal titration calorimetry, C-SH2 mutant RasGAP^232(mut); assay type: binding
T1 construct: (residues 174–444, termed RasGAP^232); hexahistidine (TEV-cleavable) (N, cleaved yes); made in house; host or cells: E. coli Rosetta (DE3)
T1 sequence (P20936 174-444 C236S/C261S/C372S/R398E/K400E/C402S): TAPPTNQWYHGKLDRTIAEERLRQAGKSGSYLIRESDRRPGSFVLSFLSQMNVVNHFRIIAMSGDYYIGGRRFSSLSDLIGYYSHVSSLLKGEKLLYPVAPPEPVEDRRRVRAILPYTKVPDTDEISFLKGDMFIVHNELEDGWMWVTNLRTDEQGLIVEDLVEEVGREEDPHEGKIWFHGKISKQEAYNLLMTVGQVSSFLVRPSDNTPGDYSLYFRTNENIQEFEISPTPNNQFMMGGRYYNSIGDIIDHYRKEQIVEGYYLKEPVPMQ
Method: One possibility for the difference in binding affinity of EphB4 compared to the other dually phosphorylated peptides is that only a single SH2 domain engages EphB4 at any time. This is supported by the observation that the Kd of binding, 2 μM, is similar to other reported individual SH2 phosphotyrosine interactions (for examples see ([60])) and the evidence of only one inflection point in the doubly phosphorylated EphB4–binding isotherm (Figs. 2B and S3). To assess this hypothesis, we generated two RasGAP^232 mutants that disrupt the phosphotyrosine-binding sites of either the N- or C-SH2 domains and conducted further ITC experiments. […] For the ‘FLVR-unique” C-terminal SH2, we introduced a double mutation R398E/K400E, to abrogate phosphotyrosine binding guided by our previous work ([52]), termed RasGAP^232(mut) (Fig. 2D). We additionally generated a double mutant of both SH2 domains, RasGAP^2(mut)32(mut), and purified each of these proteins (Fig. S2, B–D). […] We then assessed phosphopeptide binding of the single mutant SH2 domains. […] This is similar to the Kd of 2 ± 0.7 μM observed for titration of this peptide into WT RasGAP^232.
To attempt to parse the specificity of RasGAP for the more N- or C-terminal EphB juxtamembrane phosphotyrosines pY590 and pY596, we assessed the affinity of RasGAP^232(mut) for shorter synthesized EphB4 peptides corresponding to either of the two phosphotyrosines (Fig. 1C). […] Alternatively, the C-terminal SH2 may contribute to a second weaker interaction in a tandem interaction. […] This low-affinity interaction represents a primarily single N-SH2-dominant interaction.
Purified RasGAP^232 protein and solubilized peptides were dialyzed overnight against buffer containing 20 mM Tris pH 8, 250 mM NaCl in Slide-A-Lyzer 3 ml 10 kDa molecular weight cut off cassettes (Spectra-Por) and Micro Float-A-Lyzer 0.1 to 0.2 ml, 0.1 to […] molecular weight cut off devices (Spectra-Por), respectively. Protein and peptide concentrations were determined by A280 measured on a Nanodrop Lite (Thermo Fisher Scientific) instrument using extinction coefficients of 45,840 M^−1 cm^−1 for RasGAP^232 (and mutants), 917 M^−1 cm^−1 for the doubly phosphorylated EphB4 peptide, and 458.5 M^−1 cm^−1 for the singly phosphorylated EphB4 peptides as determined by ([74]). Dok1 peptide concentration was confirmed using Amino Acid Analysis performed at UC Davis Molecular Structure Facility. Samples were centrifuged for 10 min at 4 °C and degassed for 7 min using a Degassing Station (TA Instruments). ITC experiments were performed on a Nano ITC (TA Instruments) by loading protein into the 190 μl sample cell and titrating 20 times with 2.5 μl peptide in the titration syringe. Concentrations for sample cell and syringe for each trial are included in Table S1. The data were analyzed in NanoAnalyze software (TA Instrument) using blank (constant) and independent models (https://www.tainstruments.com/itcrun-dscrun-nanoanalyze-software/).

[3] = molecular target: p190RhoGAP-A doubly phosphorylated peptide (Homo sapiens) (UniProt Q9NRY4); assay: ITC; settings: cited from earlier work
[4] = ITC, average of trials (Table S1)

p190RhoGAP-A doubly phosphorylated peptide (Homo sapiens), sequence (Q9NRY4 1083-1111): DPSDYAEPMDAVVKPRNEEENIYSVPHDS
p120RasGAP SH2-SH3-SH2, sequence (P20936 174-444): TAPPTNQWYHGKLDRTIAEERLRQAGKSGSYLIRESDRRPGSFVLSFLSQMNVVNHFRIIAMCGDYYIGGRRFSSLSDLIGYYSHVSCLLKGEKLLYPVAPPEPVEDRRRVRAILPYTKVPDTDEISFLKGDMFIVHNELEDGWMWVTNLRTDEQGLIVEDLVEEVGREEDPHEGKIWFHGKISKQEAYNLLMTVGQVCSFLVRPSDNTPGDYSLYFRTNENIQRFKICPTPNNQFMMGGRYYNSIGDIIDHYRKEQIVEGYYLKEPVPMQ

Kd ([2]; ITC, 20 mM Tris pH 8, 250 mM NaCl, independent model, mean ± SD of trials (n = 4 pYpY EphB4, n = 3 pY590, pY596), read-out: Kd) | Molecule | solubility on reconstitution, in words [1] | weaker binding than the doubly phosphorylated EphB4 peptide ([2]; ITC Kd, singly versus doubly phosphorylated EphB4 peptide) | n ([2]; ITC stoichiometry, mean ± SD of trials) | -T∆S [2, 4] | Ka [2, 4] | ∆G [2, 4] | ΔS ([2]; ITC, mean ± SD of trials) | -T∆S ([2]; trial 2, ITC) | Ka ([2]; trial 2, ITC) | ∆G ([2]; trial 2, ITC) | ∆H ([2]; trial 2, ITC) | ∆S ([2]; trial 2, ITC) | -T∆S ([2]; trial 3, ITC) | ∆G ([2]; trial 3, ITC) | ∆H ([2]; trial 3, ITC) | ∆S ([2]; trial 3, ITC) | Kd ([2]; trial 3, ITC, read-out: Ka) | Kd [3]
– | CC[C@H](C)[C@H](NC(=O)[C@H](Cc1ccc(OP(=O)(O)O)cc1)NC(=O)[C@@H](NC(=O)[C@H](CCCCN)NC(=O)[C@@H](NC(=O)CNC(C)=O)[C@@H](C)O)C(C)C)C(=O)N[C@@H](CC(=O)O)C(=O)N1CCC[C@H]1C(=O)N[C@@H](Cc1ccccc1)C(=O)N[C@H](C(N)=O)[C@@H](C)O [pY590 EphB4] (Ac-GTKV[pY]IDPFT-NH2) | less soluble | about 10 fold | 0.8 ± 0.1 | -2.87 kcal/mol | 0.07 µM⁻¹ | -6.69 kcal/mol | 40 J/mol∗K and 40 ± 18 J/mol∗K | -2.82 kcal/mol | 0.07 µM⁻¹ | -6.6 kcal/mol | -3.78 kcal/mol | 40.0 J/mol*K | -4.16 kcal/mol | -6.84 kcal/mol | -2.68 kcal/mol | 58.3 J/mol*K | 100 nM | –
1000 ± 300 nM | CC[C@H](C)[C@H](NC(=O)[C@H](Cc1ccc(OP(=O)(O)O)cc1)NC(=O)[C@@H](NC(=O)[C@H](CCCCN)NC(=O)[C@@H](NC(=O)CNC(C)=O)[C@@H](C)O)C(C)C)C(=O)N[C@@H](CC(=O)O)C(=O)N1CCC[C@H]1C(=O)N[C@@H](Cc1ccccc1)C(=O)N[C@H](C(=O)N[C@@H](Cc1ccc(OP(=O)(O)O)cc1)C(=O)N[C@@H](CCC(=O)O)C(=O)N[C@@H](CC(=O)O)C(=O)N1CCC[C@H]1C(=O)N[C@@H](CC(N)=O)C(=O)N[C@@H](CCC(=O)O)C(=O)N[C@@H](C)C(N)=O)[C@@H](C)O [pYpY EphB4] (Ac-GTKV[pY]IDPFT[pY]EDPNEA-NH2) | less soluble | – | – | – | – | – | – | – | – | – | – | – | – | – | – | – | – | –
– | p120RasGAP SH2-SH3-SH2 (from UniProt P20936) | – | – | – | – | – | – | – | – | – | – | – | – | – | – | – | – | – | 10 nM
